Source: PubChem BioAssay (NCI)
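Following 48 hours of exposure in 96-well plates, responses at five concentrations were used to interpolate endpoints linearly. Here, GI50 denotes the concentration required for 50% inhibition of growth. TGI is the concentration that stops growth completely.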

Legend:
Assay in all cases: DTP human tumour cell line panel, 48 h
TK-10 renal = system: TK-10 renal
SF-268 CNS = system: SF-268 CNS
SW-620 colon = system: SW-620 colon
MDA-N = system: MDA-N
786-0 renal = system: 786-0 renal
HCC-2998 colon = system: HCC-2998 colon
HOP-62 NSCLC = system: HOP-62 NSCLC
NCI-H226 lung = system: NCI-H226 lung
SNB-75 CNS = system: SNB-75 CNS
DLD-1 colon = system: DLD-1 colon
HOP-18 NSCLC = system: HOP-18 NSCLC
KM20L2 colon = system: KM20L2 colon
M19-MEL melanoma = system: M19-MEL melanoma

Row | Compound | TGI (TK-10 renal) | TGI (SF-268 CNS) | TGI (SW-620 colon) | TGI (MDA-N) | TGI (786-0 renal) | TGI (HCC-2998 colon) | TGI (HOP-62 NSCLC) | TGI (NCI-H226 lung) | TGI (SNB-75 CNS) | TGI (DLD-1 colon) | TGI (HOP-18 NSCLC) | TGI (KM20L2 colon) | TGI (M19-MEL melanoma) | GI50 (HOP-62 NSCLC) | GI50 (TK-10 renal) | GI50 (SNB-75 CNS) | GI50 (NCI-H226 lung) | GI50 (SF-268 CNS) | GI50 (HCC-2998 colon) | GI50 (SW-620 colon)
1 | CN(CCCNC(=O)c1nn(-c2ccccc2)c2c1Cc1ccccc1-2)CCCNC(=O)c1nn(-c2ccccc2)c2c1Cc1ccccc1-2 | 3.22 µM | 3.31 µM | 2.63 µM | 2.66 µM | 2.9 µM | 2.77 µM |  |  |  |  |  |  |  |  |  |  |  |  |  | 
2 | Nc1csc(-c2scc3c2OCCO3)c1N | 87.3 µM | 47.5 µM | 87.9 µM | 38.8 µM | 33.3 µM | 49.8 µM | 42.6 µM | 42.9 µM |  |  |  |  |  |  |  |  |  |  |  | 
3 | COc1ccc2c3c([nH]c2c1)[C@H](C=C(C)C)N1C(=O)[C@@H]2CCCN2C(=O)[C@@H]1C3 | > 100 µM | > 100 µM | > 100 µM |  | > 100 µM | > 100 µM | > 100 µM | > 100 µM | 61 µM |  |  |  |  |  |  |  |  |  |  | 
4 | CC(C)(C)COS(=O)OCC(C)(C)C | > 100 µM | > 100 µM | > 100 µM | > 100 µM | > 100 µM | > 100 µM | > 100 µM | > 100 µM | > 100 µM |  |  |  |  |  |  |  |  |  |  | 
5 | CCC1=C(CC2NCCc3cc(OC)c(OC)cc32)CC2c3ccccc3CCN2C1 (stereo not given) | > 100 µM | > 100 µM | 37.3 µM | 27 µM | 35.6 µM |  | > 100 µM | 73.6 µM | 87.9 µM |  |  |  |  |  |  |  |  |  |  | 
6 | CC(NC(=O)c1ccc(OP(=O)(OCc2ccc([N+](=O)[O-])o2)N(C)CCCCCl)cc1)c1ccc(OCC2CCCCC2)c(C(N)=O)c1 (stereo not given) | 60.9 µM | 10.9 µM | > 43.1 µM | 24 µM | > 37.2 µM | > 21.7 µM | 36.7 µM | 26.2 µM | 25.3 µM |  |  |  |  |  |  |  |  |  |  | 
7 | OC1CCSc2ccccc21 (stereo not given) |  | > 100 µM | > 100 µM |  |  | > 100 µM | > 100 µM | > 100 µM |  | > 100 µM | > 100 µM | > 100 µM | > 100 µM |  |  |  |  |  |  | 
8 | CS(=O)(=O)Nc1cccc(-c2ccc3ncnc(Nc4cncc(Cl)c4)c3c2)c1 | 5.44 µM | > 100 µM |  |  |  | 5.27 µM | 17.8 µM | 8.23 µM | > 100 µM |  |  |  |  | 2.7 µM | 0.748 µM | 2.77 µM | 2.21 µM | 2.26 µM | 2.4 µM | 
9 | CN(CCCN1CCCC1)CCCN(C)C(=O)Cc1ccc(Cl)c(Cl)c1 | 32.1 µM | > 51.5 µM | 50.7 µM | 16 µM | 29.2 µM | 20.6 µM | 51 µM | 48 µM | 42.6 µM |  |  |  |  |  |  |  |  |  |  | 
10 | O=C(NN1CCCCC1)c1cc2cc(CCl)ccc2oc1=O | 35.5 µM | 32.9 µM | 60.7 µM | 33.4 µM | 32 µM | 27.1 µM | 40.5 µM | 45.3 µM | 34.9 µM |  |  |  |  |  |  |  |  |  |  | 
11 | CC12OC(C(=O)C13CCC3)C1C(=O)c3c(O)ccc(O)c3C(=O)C12 (stereo not given) | 1.57 µM | 26.3 µM | 3.88 µM |  |  |  | 15.6 µM | > 100 µM | 20.1 µM |  |  |  |  | 3.01 µM | 0.587 µM | 4.99 µM | > 100 µM | 7.96 µM |  | 1.39 µM
12 | c1ccc(C[N+]23C(CC[C@H]2c2ccccc2)CC[C@H]3c2ccccc2)cc1 (stereo not given in full) | > 100 µM | > 100 µM | > 100 µM | 98.9 µM | > 100 µM |  | > 100 µM | 87.8 µM | 75 µM |  |  |  |  |  |  |  |  |  |  | 
13 | COc1cc(S(=O)(=O)Nc2ccc(-c3csc(/N=C\c4cccc(Oc5ccccc5)c4)n3)cc2)ccc1Cl |  | > 100 µM | > 100 µM |  | > 100 µM |  | > 100 µM | > 100 µM | 80.1 µM |  |  |  |  |  |  |  |  |  |  | 
14 | COc1cc2cc[n+](C)c(Cc3ccc(Oc4cc(Cc5c6cc(OC)c(OC)cc6cc[n+]5C)ccc4OC)cc3)c2cc1OC | > 100 µM | > 100 µM | > 100 µM | > 100 µM | > 100 µM | > 100 µM | > 100 µM | > 100 µM | > 100 µM |  |  |  |  |  |  |  |  |  |  | 
15 | Clc1cccc(/C=c2\nc(-c3ccccc3)n3c2nc2ccccc23)c1 | > 100 µM | > 100 µM | > 100 µM | > 100 µM | > 100 µM |  | > 100 µM | > 100 µM | 81.2 µM |  |  |  |  |  |  |  |  |  |  | 
